From US11338007B2, “Combination formulation of three antiviral compounds” (priority 2016, dated 2022)

Key:
[1] = Food effect (high calorie/high-fat meals) on pharmacokinetics in human subjects (Table 28); assay type: in vivo; conditions: tablets 400/100/100 mg; high calorie/high-fat meal
Description: The effect of food (high calorie/high-fat meals) on the pharmacokinetics of sofosbuvir/velpatasvir SSD/voxilaprevir SSD tablets (400/100/100 mg). […] As a result, sofosbuvir/velpatasvir SSD/voxilaprevir SSD tablets are administered with food.

[2] = Tablet dissolution as a function of medium pH and composition (FIGS. 13-15); assay type: physicochemical; conditions: Formulation G tablets; independent of medium pH and composition
[3] = Stability of clinical film-coated tablets Batches A-D (Tables 14, 15A-15C); assay type: physicochemical; conditions: for LS (%): tablets Batch C, 1 g desiccant
Description: FIGS. 10-12 depict additional dissolution profiles for the sofosbuvir/velpatasvir SSD/voxilaprevir SSD tablets having the formulation described in Table 13 and which were used in phase 1, 2, and 3 clinical studies, where the dissolution testing was conducted at pH 5.0 acetate buffer containing 2.0% w/v polysorbate 80. Four batches of the sofosbuvir/velpatasvir SSD/voxilaprevir SSD tablets were tested, with Batch A manufactured at 100 kg and Batches B, C and D manufactured at 145 kg. All other aspects of the formulation and manufacturing process were otherwise equivalent. The four batches were packed in the same commercial configuration: 28 count, 100 mL HPDE bottle with 1 g silica gel desiccant canister and a polyester fiber coil. […] Moreover, for Batch A, the amount dissolved at 30 min remained between 98 and 100% for sofosbuvir, between 90 and 92% for velpatasvir SSD, and between 89 and 93% for voxilaprevir SSD. […] For Batch D, the amount dissolved at 30 min remained at 100% for sofosbuvir, between 90 and 91% for velpatasvir SSD, and between 89 and 91% for voxilaprevir SSD. Release of velpatasvir SSD and voxilaprevir SSD from the sofosbuvir/velpatasvir SSD/voxilaprevir SSD tablets associated with all four Batches was complete after 60 minutes.
Stability data associated with the sofosbuvir/velpatasvir SSD/voxilaprevir SSD film-coated tablets (Batch A) are presented in Table 14. […] No upward trend in the content of degradation products was observed over the time period studied. The water content for packaged tablets remained between 1.9 and 2.3% through 6 months storage at 40° C./75% RH, 30° C./75% RH, and 25° C./60% RH. As summarized in Table 14, the packaged tablets (Batch A) were physically stable with no change in XRPD patterns after 6 months storage.
Stability data associated with the sofosbuvir/velpatasvir SSD/voxilaprevir SSD film-coated tablets (Batches B-D) are presented in Tables 15A-15C, respectively. […] No upward trend in the content of degradation products was observed over the time period studied. The water content for packaged tablets remained between 1.8 and 2.3% through 6 months storage at 40° C./75% RH, 30° C./75% RH, and 25° C./60% RH. The packaged tablets were physically stable with no change in XRPD patterns after 6 months storage.
For Batch D, the packaged tablets had acceptable chemical stability for up to 1 month under all conditions with total impurities/degradation products of sofosbuvir remaining at 0.0%, velpatasvir SSD remaining between 0.7 and 0.8%, and voxilaprevir SSD remaining at 0.0%. No upward trend in the content of degradation products was observed over the time period studied. The water content for packaged tablets remained between 1.9 and 2.3% through 1 month storage at 40° C./75% RH, 30° C./75% RH, and 25° C./60% RH.

[4] = Chemical and physical stability of Formulation G film-coated tablets Lots A and B (Tables 11A, 11B); assay type: physicochemical
Description: In some embodiments, the film-coated tablets were packaged in 75 and 100 mL white HDPE bottles (Lots A and B, respectively, as described in Tables 11A, 11B) with 1 g silica gel desiccant canisters and a polyester fiber coil. The 75 and 100 mL HDPE bottles contained fourteen and twenty eight tablets, respectively. Each HDPE bottle was capped using a continuous thread, child-resistant polypropylene screw cap with an […], aluminum-faced line. The packaged tablets (14 and 28 counts) were evaluated for stability at 40° C./75% RH and 25° C./60% RH. Additionally, the 14-count bottles (without cap) were evaluated for stability under open conditions at 40° C./75% RH.

[5] = Tablet dissolution, 1.0% w/v CTAB in 190 mM acetate buffer pH 4.0, USP Type II, 75 rpm; assay type: physicochemical
[6] = Batch A, 25° C./60% RH, 3 months
[7] = Batch A, 25° C./60% RH, 6 months
[8] = Batch A, 30° C./75% RH, 3 months
[9] = Batch A, 30° C./75% RH, 6 months
[10] = Batch A, 40° C./75% RH, 1 month
[11] = Batch A, 40° C./75% RH, 3 months
[12] = Batch A, 40° C./75% RH, 6 months
[13] = Lot A (14 ct), 25° C./60% RH Closed, 1 month
[14] = Lot A (14 ct), 25° C./60% RH Closed, 3 months
[15] = Lot A (14 ct), 25° C./60% RH Closed, 6 months
[16] = Lot A (14 ct), 40° C./75% RH Closed, 1 month
[17] = Lot A (14 ct), 40° C./75% RH Closed, 3 months
[18] = Lot A (14 ct), 40° C./75% RH Closed, 6 months
[19] = Lot A (14 ct), 40° C./75% RH Open, 1 month
[20] = Lot A (14 ct), 40° C./75% RH Open, 3 months
[21] = Lot A (14 ct), 40° C./75% RH Open, 6 months
[22] = Lot B (28 ct), 25° C./60% RH Closed, 1 month
[23] = Lot B (28 ct), 25° C./60% RH Closed, 3 months
[24] = Lot B (28 ct), 25° C./60% RH Closed, 6 months
[25] = Lot B (28 ct), 40° C./75% RH Closed, 1 month
[26] = Lot B (28 ct), 40° C./75% RH Closed, 3 months
[27] = Lot B (28 ct), 40° C./75% RH Closed, 6 months

CC(C)OC(=O)C(C)N[P@](=O)(OC[C@H]1O[C@@H](n2ccc(=O)[nH]c2=O)[C@](C)(F)[C@@H]1O)Oc1ccccc1 (stereo in doubt) [sofosbuvir, (S)-isopropyl 2-(((S)-(((2R,3R,4R,5R)-5-(2,4-dioxo-3,4-dihydropyrimidin-1(2H)-yl)-4-fluoro-3-hydroxy-4-methyltetrahydrofuran-2-yl)methoxy)(phenoxy)phosphoryl)amino)propanoate]
effect of food on plasma exposure [1]: does not substantially alter | dissolution complete within [2]: ≤ 20 min | LS [3, 6]: 102.7% | Total Imp./Deg. [3, 6]: 0.0% | LS [3, 7]: 99.0% | Total Imp./Deg. [3, 7]: 0.0% | LS [3, 8]: 100.3% | Total Imp./Deg. [3, 8]: 0.0% | LS [3, 9]: 98.1% | Total Imp./Deg. [3, 9]: 0.0% | LS [3, 10]: 99.7% | Total Imp./Deg. [3, 10]: 0.0% | LS [3, 11]: 101.7% | Total Imp./Deg. [3, 11]: 0.0% | LS [3, 12]: 98.7% | Total Imp./Deg. [3, 12]: 0.0% | LS ([3]; Batch A, Initial): 99.0% | Total Imp./Deg. ([3]; Batch A, Initial): 0.0% | total impurities/degradation products ([3]; Batch A, up to 6 months under all conditions): 0.0% | LS ([3]; Batch B, 25° C./60% RH, 3 months): 100.7% | LS ([3]; Batch B, 25° C./60% RH, 6 months): 100.1% | LS ([3]; Batch B, 30° C./75% RH, 3 months): 98.4% | LS ([3]; Batch B, 30° C./75% RH, 6 months): 98.8% | LS ([3]; Batch B, 40° C./75% RH, 1 month): 101.7% | LS ([3]; Batch B, 40° C./75% RH, 3 months): 99.8% | LS ([3]; Batch B, 40° C./75% RH, 6 months): 99.0% | LS ([3]; Batch B, Initial): 100.0% | Total Imp./Deg. ([3]; Batch B, Initial): 0.0% | LS ([3]; Batch D, 40° C./75% RH, 1 month): 99.7% | LS ([3]; Batch D, Initial): 99.8% | total impurities/degradation products ([3]; Batch D, up to 1 month under all conditions): 0.0% | total impurities/degradation products ([3]; Batches B and C, up to 6 months under all conditions): 0.0% | LS (%) ([3]; 25° C./60% RH, 3 months): 98.9% | LS (%) ([3]; 25° C./60% RH, 6 months): 98.8% | LS (%) ([3]; 30° C./75% RH, 3 months): 100.1% | LS (%) ([3]; 30° C./75% RH, 6 months): 99.1% | LS (%) ([3]; 40° C./75% RH, 1 month): 101.1% | LS (%) ([3]; 40° C./75% RH, 3 months): 99.4% | LS (%) ([3]; 40° C./75% RH, 6 months): 98.9% | LS (%) ([3]; Initial, time 0): 99.1% | total impurities/degradation products ([4]; Formulation G tablets, open conditions at 40° C./75% RH for 6 months): 0.0% | Total Imp./Deg. [4, 13]: 0.0% | Total Imp./Deg. [4, 14]: 0.0% | Total Imp./Deg. [4, 15]: 0.0% | Total Imp./Deg. [4, 16]: 0.0% | Total Imp./Deg. [4, 17]: 0.0% | Total Imp./Deg. [4, 18]: 0.0% | Total Imp./Deg. [4, 19]: 0.0% | Total Imp./Deg. [4, 20]: 0.0% | Total Imp./Deg. [4, 21]: 0.0% | Total Imp./Deg. ([4]; Lot A (14 ct), Initial): 0.0% | Total Imp./Deg. [4, 22]: 0.0% | Total Imp./Deg. [4, 23]: 0.0% | Total Imp./Deg. [4, 24]: 0.0% | Total Imp./Deg. [4, 25]: 0.0% | Total Imp./Deg. [4, 26]: 0.0% | Total Imp./Deg. [4, 27]: 0.0% | Total Imp./Deg. ([4]; Lot B (28 ct), Initial): 0.0% | total impurities/degradation products ([4]; packaged Formulation G tablets, 40° C./75% RH and 25° C./60% RH for 6 months): 0.0% | Dissolved at 30 min [5, 13]: 98% | Dissolved at 30 min [5, 14]: 103% | Dissolved at 30 min [5, 15]: 103% | Dissolved at 30 min [5, 16]: 100% | Dissolved at 30 min [5, 17]: 100% | Dissolved at 30 min [5, 18]: 100% | Dissolved at 30 min [5, 19]: 98% | Dissolved at 30 min [5, 20]: 101% | Dissolved at 30 min [5, 21]: 100% | Dissolved at 30 min ([5]; Lot A (14 ct), Initial): 103% | Dissolved at 30 min [5, 22]: 102% | Dissolved at 30 min [5, 23]: 100% | Dissolved at 30 min [5, 24]: 102% | Dissolved at 30 min [5, 25]: 97% | Dissolved at 30 min [5, 26]: 99% | Dissolved at 30 min [5, 27]: 99% | Dissolved at 30 min ([5]; Lot B (28 ct), Initial): 103%
